Tested on: lacrimal gland-nictitating membrane-harderian gland-enucleated rabbit dry eye models
Test: Rose bengal intake of cornea in rabbit dry eye models after instillation of ophthalmic solutions
Format: in vivo
Settings: rabbit dry eye model
Method: An effect of farnesylacetic acid on dry eye was studied by using lacrimal gland-nictitating membrane-harderian gland-enucleated rabbit dry eye models.
Lacrimal gland-nictitating membrane-harderian gland-enucleated rabbit dry eye models were prepared by reference to the method of Girbard et al. (Invest. Ophthalmol. Vis. Sci., 28: 225-228 (1987)). Namely, a 7:1 mixture of a 5% ketamine hydrochloride injection and a 2% xylazine hydrochloride injection was injected into rabbits in an amount of 1 ml/kg to anesthetize the rabbits systemically. A 0.4% oxybuprocaine hydrochloride ophthalmic solution was instilled into the rabbits, lower lid skin was dissected in length of about 5 mm along an orbital bone, and then a lacrimal gland was enucleated from the outside of a conjunctival sac. The skin at the dissected site was sutured with 4-0 sutures, and an ofloxacin eye ointment was applied to the sutured site. Next, a harderian gland was enucleated while drawing it out with a nictitating membrane. Finally, the ofloxacin eye ointment was applied to the enucleated site.
Farnesylacetic acid ophthalmic solutions were prepared by diluting farnesylacetic acid with the following vehicle so that its concentrations were 0.75, 7.5 and 75 μM. A gefarnate ophthalmic solution was prepared by diluting gefarnate with the same vehicle so that its concentration was 7.5 mM. All the obtained ophthalmic solutions had pH of 7.4 and osmotic pressure of 1.0.
Each farnesylacetic acid ophthalmic solution (50 μl) was instilled into the lacrimal gland-nictitating membrane-harderian gland-enucleated rabbits six times per day for two weeks (four rabbits and eight eyes per group. The vehicle and gefarnate were instilled similarly as a control group and a comparative group respectively.
Effects on dry eye were evaluated by measuring rose bengal intake. A 7:1 mixture of a 5% ketamine hydrochloride injection and a 2% xylazine hydrochloride injection was injected into the rabbits in an amount of 1 ml/kg to anesthetize the rabbits systemically, then eyelids were opened with an eye speculum, and the conjunctival sacs were filled with physiological saline containing 1% rose bengal. The eyes were maintained for 10 seconds and then washed with physiological saline. A 5% pentobarbital injection was injected into the rabbits to euthanatize them, and eyeballs were enucleated. Corneal pieces were prepared with a trephine having an inner diameter of 8 mm, put into 1 ml of 2 M sodium hydroxide and allowed to stand under light resistance for one day to dissolve corneal tissues completely. Absorbance at a wavelength of 560 nm of the obtained tissue-dissolved solutions was measured with a spectrophotometer.
Rose bengal stains a portion containing no mucin layer in keratoconjunctiva. […] Accordingly, when the mucin layer decreases because of dry eye, rose bengal intake of the corneal tissues increases, and the absorbance of the tissue-dissolved solution increases.

In the case of `CC(C)=CCC/C(C)=C/CC/C(C)=C/CCC(=O)O` [Farnesylacetic acid, farnesylacetic acid], the “Effect compared with gefarnate (7.5 mM administration group)” value (75 μM administration group, about 1/100 of the gefarnate concentration) was “an effect equal to that of gefarnate”, the “Rose bengal intake compared with vehicle administration group” value (0.75, 7.5 and 75 μM administration groups) was “apparently less than that in the vehicle administration group” and the “Absorbance (560 nm) of corneal tissue-dissolved solution (rose bengal intake)” value (“Absorbance (560 nm)” below) (ophthalmic solution 0.75 μM, 50 μl instilled six times per day for two weeks) was 0.169. The “Absorbance (560 nm)” value (ophthalmic solution 7.5 μM, 50 μl instilled six times per day for two weeks) was 0.139 and the “Absorbance (560 nm)” value (ophthalmic solution 75 μM, 50 μl instilled six times per day for two weeks) was 0.093.

`CC(C)=CCC/C(C)=C/CC/C(C)=C/CCC(=O)OC/C=C(\C)CCC=C(C)C` [gefarnate, reference compound] was tested, and the “Absorbance (560 nm)” value (ophthalmic solution 7.5 mM, instilled six times per day for two weeks) was 0.075.
